Measurements: US9340590B2 (priority 2011, dated 2016)
Positions of bridges follow the written chain, without caps; N, C: chain ends. Residues, ends and D or L forms follow the SMILES beside them.

Legend:
Assay in all cases: cell-based
hNav1.5 = hNav1.5 (Homo sapiens, UniProt Q14524); conditions: IonWorks Quattro, use-dependent block, hNav1.5; read-out: IWQ Use Nav1.5
hNav1.3 = hNav1.3 (Homo sapiens, UniProt Q9NY46); conditions: IonWorks Quattro, use-dependent block, hNav1.3; read-out: IWQ Use Nav1.3
hNav1.7 = hNav1.7 (Homo sapiens, UniProt Q15858); assay type: cell-based; conditions: IonWorks Quattro, use-dependent block, hNav1.7; read-out: IWQ Use Nav1.7

Sequence of hNav1.5 (Q14524 whole entry, looked up): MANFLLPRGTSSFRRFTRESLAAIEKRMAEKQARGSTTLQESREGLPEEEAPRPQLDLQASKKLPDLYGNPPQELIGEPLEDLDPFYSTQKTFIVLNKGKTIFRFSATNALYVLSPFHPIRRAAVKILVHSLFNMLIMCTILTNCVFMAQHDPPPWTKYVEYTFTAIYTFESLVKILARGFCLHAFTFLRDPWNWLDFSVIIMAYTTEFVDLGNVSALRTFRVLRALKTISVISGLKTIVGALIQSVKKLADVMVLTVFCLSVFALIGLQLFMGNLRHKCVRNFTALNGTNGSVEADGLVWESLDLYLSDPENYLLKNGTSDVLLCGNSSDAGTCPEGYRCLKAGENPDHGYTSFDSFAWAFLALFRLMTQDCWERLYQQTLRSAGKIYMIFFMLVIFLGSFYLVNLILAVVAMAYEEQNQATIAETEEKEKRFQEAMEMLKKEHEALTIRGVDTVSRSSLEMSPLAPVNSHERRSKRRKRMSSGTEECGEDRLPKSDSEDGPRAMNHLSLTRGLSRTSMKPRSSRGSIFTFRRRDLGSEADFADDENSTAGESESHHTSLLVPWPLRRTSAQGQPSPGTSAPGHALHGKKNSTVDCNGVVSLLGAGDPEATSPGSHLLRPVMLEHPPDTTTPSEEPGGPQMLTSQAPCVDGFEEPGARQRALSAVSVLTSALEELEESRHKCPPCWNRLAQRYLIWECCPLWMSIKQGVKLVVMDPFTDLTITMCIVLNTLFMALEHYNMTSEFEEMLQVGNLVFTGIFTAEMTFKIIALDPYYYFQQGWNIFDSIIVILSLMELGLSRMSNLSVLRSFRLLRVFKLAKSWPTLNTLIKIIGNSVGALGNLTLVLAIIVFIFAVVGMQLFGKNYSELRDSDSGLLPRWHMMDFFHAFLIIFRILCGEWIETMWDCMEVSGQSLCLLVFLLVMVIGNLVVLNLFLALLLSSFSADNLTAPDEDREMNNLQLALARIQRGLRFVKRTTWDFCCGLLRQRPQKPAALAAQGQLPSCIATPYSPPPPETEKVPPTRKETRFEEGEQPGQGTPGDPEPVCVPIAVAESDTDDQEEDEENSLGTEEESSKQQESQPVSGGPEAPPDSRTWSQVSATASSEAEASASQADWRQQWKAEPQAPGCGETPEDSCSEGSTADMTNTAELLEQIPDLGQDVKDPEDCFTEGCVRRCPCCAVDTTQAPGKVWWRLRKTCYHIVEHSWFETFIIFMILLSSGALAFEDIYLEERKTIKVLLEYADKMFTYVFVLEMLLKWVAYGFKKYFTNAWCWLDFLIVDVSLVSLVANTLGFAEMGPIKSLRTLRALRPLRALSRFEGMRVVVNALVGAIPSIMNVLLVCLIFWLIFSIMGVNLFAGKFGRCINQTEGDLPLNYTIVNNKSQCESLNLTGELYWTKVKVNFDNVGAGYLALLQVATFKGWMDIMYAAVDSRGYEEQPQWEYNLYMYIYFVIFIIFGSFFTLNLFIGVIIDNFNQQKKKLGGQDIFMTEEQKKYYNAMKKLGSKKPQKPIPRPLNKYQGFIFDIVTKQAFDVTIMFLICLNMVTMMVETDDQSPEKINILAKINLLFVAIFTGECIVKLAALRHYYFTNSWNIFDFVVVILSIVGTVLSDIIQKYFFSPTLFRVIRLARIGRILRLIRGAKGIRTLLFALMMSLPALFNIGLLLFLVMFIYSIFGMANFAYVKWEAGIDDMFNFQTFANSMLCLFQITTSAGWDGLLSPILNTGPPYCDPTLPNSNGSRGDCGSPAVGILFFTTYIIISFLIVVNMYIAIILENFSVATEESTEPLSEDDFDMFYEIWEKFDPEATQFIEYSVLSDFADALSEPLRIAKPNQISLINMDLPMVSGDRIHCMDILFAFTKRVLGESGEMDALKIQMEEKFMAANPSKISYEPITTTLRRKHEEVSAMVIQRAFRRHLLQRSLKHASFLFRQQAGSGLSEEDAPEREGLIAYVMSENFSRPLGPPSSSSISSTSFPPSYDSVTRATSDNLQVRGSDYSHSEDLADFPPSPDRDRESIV
Sequence of hNav1.3 (Q9NY46 whole entry, looked up): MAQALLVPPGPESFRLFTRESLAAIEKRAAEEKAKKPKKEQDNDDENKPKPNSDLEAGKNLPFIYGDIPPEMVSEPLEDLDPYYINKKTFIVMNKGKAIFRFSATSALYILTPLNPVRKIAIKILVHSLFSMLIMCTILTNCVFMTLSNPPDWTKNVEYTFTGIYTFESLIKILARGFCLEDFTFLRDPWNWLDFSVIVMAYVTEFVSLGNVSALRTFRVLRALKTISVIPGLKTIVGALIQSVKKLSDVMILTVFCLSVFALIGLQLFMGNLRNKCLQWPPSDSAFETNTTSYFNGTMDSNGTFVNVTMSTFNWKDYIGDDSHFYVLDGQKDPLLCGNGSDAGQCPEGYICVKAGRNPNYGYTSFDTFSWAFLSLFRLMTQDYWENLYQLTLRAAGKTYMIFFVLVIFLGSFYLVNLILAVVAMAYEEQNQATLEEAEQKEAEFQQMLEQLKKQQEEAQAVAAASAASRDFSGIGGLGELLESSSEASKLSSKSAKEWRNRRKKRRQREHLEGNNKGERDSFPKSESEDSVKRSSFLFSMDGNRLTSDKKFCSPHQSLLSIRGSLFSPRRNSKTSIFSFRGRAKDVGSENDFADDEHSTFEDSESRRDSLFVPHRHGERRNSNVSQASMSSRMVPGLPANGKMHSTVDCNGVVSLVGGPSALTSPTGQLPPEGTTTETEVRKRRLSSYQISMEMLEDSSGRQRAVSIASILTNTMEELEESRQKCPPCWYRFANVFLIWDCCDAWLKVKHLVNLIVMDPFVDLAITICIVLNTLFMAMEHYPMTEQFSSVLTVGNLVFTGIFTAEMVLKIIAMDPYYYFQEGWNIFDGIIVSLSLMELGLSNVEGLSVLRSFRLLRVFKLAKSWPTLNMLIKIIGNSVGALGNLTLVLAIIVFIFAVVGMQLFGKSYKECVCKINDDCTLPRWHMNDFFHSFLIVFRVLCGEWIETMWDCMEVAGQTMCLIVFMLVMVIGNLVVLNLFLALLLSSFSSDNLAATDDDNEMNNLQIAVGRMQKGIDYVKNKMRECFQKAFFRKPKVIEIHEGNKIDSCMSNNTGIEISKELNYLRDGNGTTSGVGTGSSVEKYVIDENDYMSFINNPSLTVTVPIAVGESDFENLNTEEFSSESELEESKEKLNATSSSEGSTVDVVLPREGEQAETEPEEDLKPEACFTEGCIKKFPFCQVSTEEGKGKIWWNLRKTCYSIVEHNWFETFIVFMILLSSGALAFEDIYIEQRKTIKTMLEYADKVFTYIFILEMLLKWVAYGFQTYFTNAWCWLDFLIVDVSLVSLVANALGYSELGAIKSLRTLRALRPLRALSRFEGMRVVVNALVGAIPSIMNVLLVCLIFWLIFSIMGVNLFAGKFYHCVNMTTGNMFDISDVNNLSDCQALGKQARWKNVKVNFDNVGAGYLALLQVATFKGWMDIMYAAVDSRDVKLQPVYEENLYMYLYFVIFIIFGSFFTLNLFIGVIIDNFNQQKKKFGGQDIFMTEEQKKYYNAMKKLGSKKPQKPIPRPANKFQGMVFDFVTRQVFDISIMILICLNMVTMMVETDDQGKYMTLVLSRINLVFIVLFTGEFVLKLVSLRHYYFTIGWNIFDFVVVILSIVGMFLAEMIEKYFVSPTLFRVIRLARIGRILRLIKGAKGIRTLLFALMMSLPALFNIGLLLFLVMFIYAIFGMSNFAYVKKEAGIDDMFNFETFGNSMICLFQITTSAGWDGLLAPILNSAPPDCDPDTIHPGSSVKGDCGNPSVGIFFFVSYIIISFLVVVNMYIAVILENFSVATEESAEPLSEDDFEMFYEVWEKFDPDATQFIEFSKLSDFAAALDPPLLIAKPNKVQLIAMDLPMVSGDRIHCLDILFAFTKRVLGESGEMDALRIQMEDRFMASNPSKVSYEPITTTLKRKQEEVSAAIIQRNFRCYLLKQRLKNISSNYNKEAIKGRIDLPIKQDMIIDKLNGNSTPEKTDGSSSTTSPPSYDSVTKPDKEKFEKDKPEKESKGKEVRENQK

| SMILES | IC50 (hNav1.5) [µM] | IC50 (hNav1.3) [µM] | IC50 (hNav1.7) [µM] |
| --- | --- | --- | --- |
| CC[C@H](C)[C@@H]1NC(=O)[C@@H]2CSSC[C@@H]3NC(=O)[C@H](C(C)C)NC(=O)[C@H](CC(C)C)NC(=O)[C@H](CC(N)=O)NC(=O)[C@@H]4CCCN4C(=O)[C@H](CCCNC(=N)N)NC(=O)[C@H](CSSC[C@H](NC(=O)[C@@H](N)CC(=O)O)C(=O)N[C@@H](CC(C)C)C(=O)NCC(=O)N[C@@H](C)C(=O)N[C@@H](Cc4ccccc4)C(=O)N[C@@H](CCCNC(=N)N)C(=O)N[C@@H](CCCCN)C(=O)N2)NC(=O)[C@H](CSSC[C@@H](C(=O)N[C@@H](CCCCN)C(=O)N[C@@H](Cc2ccc(O)cc2)C(=O)N[C@H](C(=O)N[C@@H](Cc2ccccc2)C(=O)O)C(C)C)NC(=O)[C@H](Cc2c[nH]c4ccccc24)NC(=O)[C@H](CCC(=O)O)NC(=O)[C@H](Cc2c[nH]cn2)NC(=O)[C@H]([C@@H](C)O)NC(=O)[C@H](CCCNC(=N)N)NC(=O)[C@H](CO)NC3=O)NC(=O)[C@H](CCCCN)NC(=O)[C@H](CC(=O)O)NC(=O)[C@H](CC(N)=O)NC(=O)[C@H](CC(=O)O)NC(=O)[C@@H]2CCCN2C1=O [compound 826] (H-DCLGAFRKCIPDNDKCCRPNLVCSRTHEWCKYVF-OH; disulfide 2-17, 9-23, 16-30) | > 5 | 1.8 | > 5 |
| CC[C@H](C)[C@@H]1NC(=O)[C@@H]2CSSC[C@@H]3NC(=O)[C@H](C(C)C)NC(=O)[C@H](CC(C)C)NC(=O)[C@H](CC(N)=O)NC(=O)[C@@H]4CCCN4C(=O)[C@H](CCCNC(=N)N)NC(=O)[C@H](CSSC[C@H](NC(=O)[C@@H](N)CC(=O)O)C(=O)N[C@@H](CC(C)C)C(=O)NCC(=O)N[C@@H](C)C(=O)N[C@@H](Cc4ccccc4)C(=O)N[C@@H](CCCNC(=N)N)C(=O)N[C@@H](CCCCN)C(=O)N2)NC(=O)[C@H](CSSC[C@@H](C(=O)N[C@@H](CCCCN)C(=O)N[C@@H](Cc2ccc(O)cc2)C(=O)N[C@H](C(=O)N[C@@H](Cc2ccccc2)C(=O)O)C(C)C)NC(=O)[C@H](Cc2c[nH]c4ccccc24)NC(=O)CNC(=O)[C@H](Cc2c[nH]cn2)NC(=O)[C@H]([C@@H](C)O)NC(=O)[C@H](CCCNC(=N)N)NC(=O)[C@H](CO)NC3=O)NC(=O)[C@H](CCCCN)NC(=O)[C@H](CC(=O)O)NC(=O)[C@H](CC(N)=O)NC(=O)[C@H](CC(=O)O)NC(=O)[C@@H]2CCCN2C1=O [compound 827] (H-DCLGAFRKCIPDNDKCCRPNLVCSRTHGWCKYVF-OH; disulfide 2-17, 9-23, 16-30) | > 5 | > 5 | > 5 |
| CC[C@H](C)[C@@H]1NC(=O)[C@@H]2CSSC[C@@H]3NC(=O)[C@H](C(C)C)NC(=O)[C@H](CC(C)C)NC(=O)[C@H](CC(N)=O)NC(=O)[C@@H]4CCCN4C(=O)[C@H](CCCNC(=N)N)NC(=O)[C@H](CSSC[C@H](NC(=O)[C@@H](N)CC(=O)O)C(=O)N[C@@H](CC(C)C)C(=O)NCC(=O)N[C@@H](C)C(=O)N[C@@H](Cc4ccccc4)C(=O)N[C@@H](CCCNC(=N)N)C(=O)N[C@@H](CCCCN)C(=O)N2)NC(=O)[C@H](CSSC[C@@H](C(=O)N[C@@H](CCCCN)C(=O)N[C@@H](Cc2ccc(O)cc2)C(=O)N[C@H](C(=O)N[C@@H](Cc2ccccc2)C(=O)O)C(C)C)NC(=O)[C@H](Cc2c[nH]c4ccccc24)NC(=O)[C@H](Cc2c[nH]cn2)NC(=O)[C@H](Cc2c[nH]cn2)NC(=O)[C@H]([C@@H](C)O)NC(=O)[C@H](CCCNC(=N)N)NC(=O)[C@H](CO)NC3=O)NC(=O)[C@H](CCCCN)NC(=O)[C@H](CC(=O)O)NC(=O)[C@H](CC(N)=O)NC(=O)[C@H](CC(=O)O)NC(=O)[C@@H]2CCCN2C1=O [compound 828] (H-DCLGAFRKCIPDNDKCCRPNLVCSRTHHWCKYVF-OH; disulfide 2-17, 9-23, 16-30) | > 5 | > 5 | > 5 |
